Here are results for twelve compounds from ChEMBL document CHEMBL1133397, “Fused bicyclic Gly-Asp beta-turn mimics with potent affinity for GPIIb-IIIa. Exploration of the arginine isostere” (Bioorg Med Chem Lett, 2000).

In general, Cmax refers to the maximum level reached in the sampled fluid or tissue. In general, IC50 refers to the concentration that gives 50% inhibition. Usually AUC stands for the area under the concentration-time curve, a measure of exposure.

Molecules are shown by their SMILES.

Tested on in the first data set: not listed separately
The data set can be described thus: Blood level after a 10 mg/kg oral dose in rat expressed as Cmax was determined. In kind it is ADME, organism-based. The arrangement: dose 10 mg/kg, route oral.
`N=C(N)c1ccc(C(=O)Nc2ccc3c(c2)CCC(CC(=O)O)C3=O)c(Cl)c1` (configuration not stated) came in with a Cmax of 3110 ng/mL.
On the same count and under the same terms, in the case of `N=C(N)c1ccc(C(=O)Nc2ccc3c(c2)CCC(CC(=O)O)C3=O)cc1` (configuration not stated) it was 3630 ng/mL; in that of `N=C(N)c1ccc(C(=O)Nc2ccc3c(c2)CCC(CC(=O)O)C3=O)cn1` (configuration not stated), 1170 ng/mL; in that of `N=C(N)c1cc(F)c(C(=O)Nc2ccc3c(c2)CCC(CC(=O)O)C3=O)c(F)c1` (configuration not stated), 2020 ng/mL.
Still for that read-out and setting: the figure for `N=C(N)c1ccc(C(=O)Nc2ccc3c(c2)CCC(CC(=O)O)C3=O)c(F)c1` (configuration not stated) is 4020 ng/mL; for `O=C(O)CC1CCc2cc(NC(=O)/C=C/C3CCNCC3)ccc2C1=O` (configuration not stated) it is 2700 ng/mL.

The target in the next data set is Integrin alpha-IIb/beta-3 (Homo sapiens, UniProt P05106+P08514). The data set can be described thus: Inhibition of fibrinogen binding to purified human GPIIb-IIIa in ELISA. Format: protein-complex assay.
Integrin alpha-IIb/beta-3, sequence (P05106 27-788 limits assumed): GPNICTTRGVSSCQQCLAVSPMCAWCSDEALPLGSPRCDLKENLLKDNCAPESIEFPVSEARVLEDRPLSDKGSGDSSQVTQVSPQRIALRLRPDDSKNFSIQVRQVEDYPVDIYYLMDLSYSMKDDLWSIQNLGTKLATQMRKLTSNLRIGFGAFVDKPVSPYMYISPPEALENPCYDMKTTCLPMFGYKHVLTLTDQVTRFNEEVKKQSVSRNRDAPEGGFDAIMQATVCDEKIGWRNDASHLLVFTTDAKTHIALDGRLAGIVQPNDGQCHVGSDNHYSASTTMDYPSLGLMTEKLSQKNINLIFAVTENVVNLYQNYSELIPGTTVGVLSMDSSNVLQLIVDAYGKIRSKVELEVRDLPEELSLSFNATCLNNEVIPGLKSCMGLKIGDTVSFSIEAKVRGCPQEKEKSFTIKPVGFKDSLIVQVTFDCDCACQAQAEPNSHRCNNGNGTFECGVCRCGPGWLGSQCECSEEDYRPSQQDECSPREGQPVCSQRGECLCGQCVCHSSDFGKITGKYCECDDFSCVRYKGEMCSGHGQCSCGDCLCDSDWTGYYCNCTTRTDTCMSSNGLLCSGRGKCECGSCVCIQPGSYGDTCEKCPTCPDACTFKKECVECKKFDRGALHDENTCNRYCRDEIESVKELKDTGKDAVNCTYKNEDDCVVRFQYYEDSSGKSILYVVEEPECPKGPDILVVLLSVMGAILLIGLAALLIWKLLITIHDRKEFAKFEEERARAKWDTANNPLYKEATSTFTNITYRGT
Integrin alpha-IIb/beta-3, sequence (P08514 32-887 limits assumed): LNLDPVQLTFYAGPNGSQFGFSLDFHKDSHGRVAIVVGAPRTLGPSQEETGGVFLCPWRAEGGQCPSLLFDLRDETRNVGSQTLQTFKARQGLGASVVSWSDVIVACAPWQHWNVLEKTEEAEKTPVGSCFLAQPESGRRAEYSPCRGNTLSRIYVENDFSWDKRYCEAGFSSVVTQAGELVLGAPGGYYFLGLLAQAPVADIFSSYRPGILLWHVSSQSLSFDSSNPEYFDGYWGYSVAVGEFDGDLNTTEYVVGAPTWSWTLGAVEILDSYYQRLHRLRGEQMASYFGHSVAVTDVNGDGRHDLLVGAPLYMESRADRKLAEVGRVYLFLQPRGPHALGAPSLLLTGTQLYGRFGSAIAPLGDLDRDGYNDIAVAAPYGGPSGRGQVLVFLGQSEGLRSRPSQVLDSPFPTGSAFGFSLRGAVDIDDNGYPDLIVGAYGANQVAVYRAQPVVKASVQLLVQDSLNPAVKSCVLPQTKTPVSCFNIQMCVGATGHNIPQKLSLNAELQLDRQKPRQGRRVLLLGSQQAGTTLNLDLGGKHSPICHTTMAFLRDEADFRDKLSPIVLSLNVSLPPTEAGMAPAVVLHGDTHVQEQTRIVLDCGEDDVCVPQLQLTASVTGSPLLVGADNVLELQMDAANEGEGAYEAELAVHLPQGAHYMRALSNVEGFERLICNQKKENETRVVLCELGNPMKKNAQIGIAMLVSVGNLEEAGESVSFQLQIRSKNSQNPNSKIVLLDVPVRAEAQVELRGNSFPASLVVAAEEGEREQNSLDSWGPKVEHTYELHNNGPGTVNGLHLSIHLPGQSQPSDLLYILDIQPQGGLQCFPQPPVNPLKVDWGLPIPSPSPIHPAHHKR
Integrin alpha-IIb/beta-3, sequence (P08514 891-1039 limits assumed): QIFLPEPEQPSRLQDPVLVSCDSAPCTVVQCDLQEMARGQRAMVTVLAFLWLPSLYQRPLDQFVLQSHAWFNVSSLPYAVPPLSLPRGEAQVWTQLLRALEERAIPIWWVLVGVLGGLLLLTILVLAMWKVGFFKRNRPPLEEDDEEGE
`O=C(O)CC1CCc2cc(NCCCC3CCNCC3)ccc2C1=O` (configuration not stated) had an IC50 of 610 nM.
`N=C(N)c1ccc(C(=O)Nc2ccc3c(c2)CCC(CC(=O)O)C3=O)c(C(F)(F)F)c1` (configuration not stated) returned an IC50 of 72 nM.
On the same count and under the same terms, the figure for `O=C(O)CC1CCc2cc(NC(=O)OCC3CCNCC3)ccc2C1=O` (configuration not stated) is 330 nM.
The same measure, in the same setting: the figure for `O=C(O)CC1CCc2cc(NC(=O)CCC3CCNCC3)ccc2C1=O` (configuration not stated) is 71 nM; for `N=C(N)c1ccc(C(=O)Nc2ccc3c(c2)CCC(CC(=O)O)C3=O)cn1` (configuration not stated) it is 9 nM; for `N=C(N)c1cc(F)c(C(=O)Nc2ccc3c(c2)CCC(CC(=O)O)C3=O)c(F)c1` (configuration not stated) it is 5 nM.
Same read-out and setting: the figure for `N=C(N)c1ccc(C(=O)Nc2ccc3c(c2)CCC(CC(=O)O)C3=O)c(F)c1` (configuration not stated) is 3 nM; for `O=C(O)CC1CCc2cc(NC(=O)/C=C/C3CCNCC3)ccc2C1=O` (configuration not stated) it is 26 nM.
Turning to `N=C(N)c1ccc(C(=O)Nc2ccc3c(c2)CCC(CC(=O)O)C3=O)s1` (configuration not stated), the IC50 stood at 210 nM.

Tested on in the next data set: not listed separately
The experiment in a line: Blood level after a 10 mg/kg oral dose in rat expressed as AUC was determined. Format: ADME, organism-based. The arrangement: dose 10 mg/kg, route oral.
Turning to `N=C(N)c1ccc(C(=O)Nc2ccc3c(c2)CCC(CC(=O)O)C3=O)c(Cl)c1` (configuration not stated), the AUC was 10400 ng·h/mL.
For the compound `N=C(N)c1ccc(C(=O)Nc2ccc3c(c2)CCC(CC(=O)O)C3=O)cc1` (configuration not stated), the AUC was determined as 11200 ng·h/mL.
Compound `N=C(N)c1ccc(C(=O)Nc2ccc3c(c2)CCC(CC(=O)O)C3=O)cn1` (configuration not stated) had an AUC of 3560 ng·h/mL.
The same measure, in the same setting: the figure for `N=C(N)c1cc(F)c(C(=O)Nc2ccc3c(c2)CCC(CC(=O)O)C3=O)c(F)c1` (configuration not stated) is 6410 ng·h/mL; for `N=C(N)c1ccc(C(=O)Nc2ccc3c(c2)CCC(CC(=O)O)C3=O)c(F)c1` (configuration not stated) it is 11900 ng·h/mL; for `O=C(O)CC1CCc2cc(NC(=O)/C=C/C3CCNCC3)ccc2C1=O` (configuration not stated) it is 8140 ng·h/mL.

The species named for another data set is Homo sapiens. The data set can be described thus: The compound was evaluated for reduction of ADP-induced human platelet aggregation response by 50% using PRP assay. In kind it is functional, organism-based.
On to `O=C(O)CC1CCc2cc(NCCCC3CCNCC3)ccc2C1=O` (configuration not stated), for which the IC50 was found to be 5500 nM.
`N=C(N)c1ccc(C(=O)Nc2ccc3c(c2)CCC(CC(=O)O)C3=O)c(Cl)c1` (configuration not stated): the IC50 was found to be 400 nM.
The same measure, in the same setting: the figure for `N=C(N)c1ccc(C(=O)Nc2ccc3c(c2)CCC(CC(=O)O)C3=O)c(C(F)(F)F)c1` (configuration not stated) is 2000 nM.
Compound `O=C(O)CC1CCc2cc(NC(=O)OCC3CCNCC3)ccc2C1=O` (configuration not stated) showed a half-inhibitory concentration (IC50) of 1800 nM.
The same measure, in the same setting: the figure for `O=C(O)CC1CCc2cc(NC(=O)CCC3CCNCC3)ccc2C1=O` (configuration not stated) is 910 nM.
Same read-out and setting: the figure for `N=C(N)c1ccc(C(=O)Nc2ccc3c(c2)CCC(CC(=O)O)C3=O)cn1` (configuration not stated) is 220 nM.
For `N=C(N)c1cc(F)c(C(=O)Nc2ccc3c(c2)CCC(CC(=O)O)C3=O)c(F)c1` (configuration not stated), it took 240 nM to reach half-maximal inhibition (IC50).
Still for that read-out and setting: the figure for `O=C(O)CC1CCc2cc(NC(=O)COC3CCNCC3)ccc2C1=O` (configuration not stated) is 18000 nM.
The same measure, in the same setting: in the case of `N=C(N)c1ccc(C(=O)Nc2ccc3c(c2)CCC(CC(=O)O)C3=O)c(F)c1` (configuration not stated) it was 100 nM.
The same measure, in the same setting: in the case of `O=C(O)CC1CCc2cc(NC(=O)/C=C/C3CCNCC3)ccc2C1=O` (configuration not stated) it was 360 nM.
In the case of `N=C(N)c1ccc(C(=O)Nc2ccc3c(c2)CCC(CC(=O)O)C3=O)s1` (configuration not stated), the midpoint of inhibition, the IC50, lay at 9000 nM.
